Assays:
Experiment in all cases: biochemical
Design in all cases: DiscoverX KINOMEscan scanMAX competition binding panel, single concentration, percent of control; remaining binding: dose or concentration left out as unconfirmed
Conditions in all cases: KINOMEscan binding, percent of control; read-out: Table S4_SCANMAX REPORT - related to Fig. 1 / Percent Control
PIK3CA(H1047Y) = PIK3CA(H1047Y) (Homo sapiens, UniProt P42336, H1047Y)
MYO3B = MYO3B (Homo sapiens, UniProt Q8WXR4)
PIK3CG = PIK3CG (Homo sapiens, UniProt P48736)
DCAMKL2 = target: T1, DCAMKL2 (Homo sapiens, UniProt Q8N568)
T1 construct: gene DCLK2

NEK3 = NEK3 (Homo sapiens, UniProt P51956)
RIPK2 = RIPK2 (Homo sapiens, UniProt O43353)
CDK7 = CDK7 (Homo sapiens, UniProt P50613)
MAP3K1 = MAP3K1 (Homo sapiens, UniProt Q13233)
BIKE = target: T2, BIKE (Homo sapiens, UniProt Q9NSY1)
T2 construct: gene BMP2K

KIT(L576P) = KIT(L576P) (Homo sapiens, UniProt P10721, L576P)
[1] = target: T3, ABL1(F317I)-phosphorylated (Homo sapiens, UniProt P00519, F317I)
T3 construct: phosphorylated

STK39 = STK39 (Homo sapiens, UniProt Q9UEW8)
[2] = target: EGFR(L747-S752del, P753S) (Homo sapiens, UniProt P00533, DEL747-752/P753S)
[3] = target: T4, RSK2(Kin.Dom.2-C-terminal) (Homo sapiens, UniProt P51812)
T4 construct: gene RPS6KA3; Kin.Dom.2-C-terminal

VEGFR2 = target: T5, VEGFR2 (Homo sapiens, UniProt P35968)
T5 construct: gene KDR

PLK1 = PLK1 (Homo sapiens, UniProt P53350)
PIK3CA(H1047L) = PIK3CA(H1047L) (Homo sapiens, UniProt P42336, H1047L)
MAP3K2 = MAP3K2 (Homo sapiens, UniProt Q9Y2U5)
Chain of MAP3K2 (Q9Y2U5 whole entry): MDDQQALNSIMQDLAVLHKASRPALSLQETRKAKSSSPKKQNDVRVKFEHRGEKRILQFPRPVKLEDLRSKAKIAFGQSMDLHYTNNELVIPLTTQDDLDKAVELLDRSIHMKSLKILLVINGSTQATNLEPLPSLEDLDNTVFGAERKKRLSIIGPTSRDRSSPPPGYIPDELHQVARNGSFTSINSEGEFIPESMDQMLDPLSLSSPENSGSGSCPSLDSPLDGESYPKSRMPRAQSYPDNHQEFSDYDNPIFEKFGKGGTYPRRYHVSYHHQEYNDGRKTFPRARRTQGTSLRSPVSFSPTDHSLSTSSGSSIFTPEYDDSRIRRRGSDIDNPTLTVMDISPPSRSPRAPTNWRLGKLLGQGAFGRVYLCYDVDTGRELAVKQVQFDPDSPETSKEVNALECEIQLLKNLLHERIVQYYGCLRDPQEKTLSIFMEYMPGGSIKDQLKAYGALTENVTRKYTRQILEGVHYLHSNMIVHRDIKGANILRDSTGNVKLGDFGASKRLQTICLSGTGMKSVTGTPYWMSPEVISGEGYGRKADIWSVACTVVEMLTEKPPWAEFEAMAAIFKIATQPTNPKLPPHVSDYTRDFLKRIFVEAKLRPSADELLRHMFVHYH

Chain of KIT(L576P) (P10721 whole entry L576P): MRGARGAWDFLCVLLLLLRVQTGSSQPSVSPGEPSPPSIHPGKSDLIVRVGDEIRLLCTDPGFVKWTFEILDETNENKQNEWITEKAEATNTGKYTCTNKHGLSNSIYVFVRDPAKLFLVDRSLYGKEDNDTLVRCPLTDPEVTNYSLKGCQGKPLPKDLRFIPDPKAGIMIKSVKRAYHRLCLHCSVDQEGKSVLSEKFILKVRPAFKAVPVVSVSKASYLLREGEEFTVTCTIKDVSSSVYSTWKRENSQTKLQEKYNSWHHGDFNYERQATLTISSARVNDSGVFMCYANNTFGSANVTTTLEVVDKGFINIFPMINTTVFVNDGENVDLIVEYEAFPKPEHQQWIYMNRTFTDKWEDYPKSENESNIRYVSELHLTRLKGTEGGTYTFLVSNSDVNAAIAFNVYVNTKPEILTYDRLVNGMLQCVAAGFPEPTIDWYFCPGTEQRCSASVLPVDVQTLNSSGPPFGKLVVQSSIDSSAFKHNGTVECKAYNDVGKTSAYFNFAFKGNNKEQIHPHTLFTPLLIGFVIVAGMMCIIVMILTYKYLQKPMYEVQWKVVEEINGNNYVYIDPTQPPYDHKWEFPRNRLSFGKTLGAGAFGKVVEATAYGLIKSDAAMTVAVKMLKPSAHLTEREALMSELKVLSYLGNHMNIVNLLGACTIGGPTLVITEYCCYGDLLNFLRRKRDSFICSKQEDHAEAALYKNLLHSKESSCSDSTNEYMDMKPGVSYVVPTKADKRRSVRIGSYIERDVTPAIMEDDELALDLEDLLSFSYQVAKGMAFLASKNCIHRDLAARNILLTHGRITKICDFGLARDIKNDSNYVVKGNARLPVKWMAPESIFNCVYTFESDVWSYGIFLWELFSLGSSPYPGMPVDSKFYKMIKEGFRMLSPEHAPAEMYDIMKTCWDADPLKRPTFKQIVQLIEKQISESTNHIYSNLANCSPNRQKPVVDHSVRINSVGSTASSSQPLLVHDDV
Chain of EGFR(L747-S752del, P753S) (P00533 with tags, fused parts or gaps DEL747-752/P753S): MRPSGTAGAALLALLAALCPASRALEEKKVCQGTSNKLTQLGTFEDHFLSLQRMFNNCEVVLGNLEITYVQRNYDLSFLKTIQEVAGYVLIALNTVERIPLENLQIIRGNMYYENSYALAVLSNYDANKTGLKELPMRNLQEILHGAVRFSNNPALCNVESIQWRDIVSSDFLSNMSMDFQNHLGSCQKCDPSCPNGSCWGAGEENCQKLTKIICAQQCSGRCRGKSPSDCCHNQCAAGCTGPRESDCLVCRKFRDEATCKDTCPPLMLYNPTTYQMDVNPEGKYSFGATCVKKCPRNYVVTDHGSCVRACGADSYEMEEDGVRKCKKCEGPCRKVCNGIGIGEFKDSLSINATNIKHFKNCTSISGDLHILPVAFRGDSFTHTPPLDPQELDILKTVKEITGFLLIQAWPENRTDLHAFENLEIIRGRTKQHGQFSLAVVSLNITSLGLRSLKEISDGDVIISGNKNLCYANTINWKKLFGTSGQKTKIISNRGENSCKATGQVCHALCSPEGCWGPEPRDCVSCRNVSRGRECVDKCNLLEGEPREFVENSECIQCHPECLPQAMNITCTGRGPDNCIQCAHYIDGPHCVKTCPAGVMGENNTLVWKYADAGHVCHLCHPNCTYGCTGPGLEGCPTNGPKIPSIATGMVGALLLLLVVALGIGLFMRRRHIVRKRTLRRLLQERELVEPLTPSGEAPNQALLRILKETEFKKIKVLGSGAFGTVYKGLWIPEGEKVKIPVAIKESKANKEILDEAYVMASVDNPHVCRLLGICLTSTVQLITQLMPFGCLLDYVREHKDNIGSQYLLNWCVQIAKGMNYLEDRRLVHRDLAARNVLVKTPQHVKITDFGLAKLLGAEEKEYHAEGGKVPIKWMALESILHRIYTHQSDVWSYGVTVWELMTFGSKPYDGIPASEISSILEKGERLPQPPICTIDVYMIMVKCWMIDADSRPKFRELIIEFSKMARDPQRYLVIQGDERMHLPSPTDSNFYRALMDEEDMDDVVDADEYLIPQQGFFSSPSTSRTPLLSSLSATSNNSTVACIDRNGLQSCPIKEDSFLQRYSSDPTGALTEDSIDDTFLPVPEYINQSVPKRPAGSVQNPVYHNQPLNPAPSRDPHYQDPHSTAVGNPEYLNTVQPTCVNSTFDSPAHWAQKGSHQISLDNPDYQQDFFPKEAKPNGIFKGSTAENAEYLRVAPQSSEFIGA
Chain of PIK3CA(H1047Y) (P42336 whole entry H1047Y): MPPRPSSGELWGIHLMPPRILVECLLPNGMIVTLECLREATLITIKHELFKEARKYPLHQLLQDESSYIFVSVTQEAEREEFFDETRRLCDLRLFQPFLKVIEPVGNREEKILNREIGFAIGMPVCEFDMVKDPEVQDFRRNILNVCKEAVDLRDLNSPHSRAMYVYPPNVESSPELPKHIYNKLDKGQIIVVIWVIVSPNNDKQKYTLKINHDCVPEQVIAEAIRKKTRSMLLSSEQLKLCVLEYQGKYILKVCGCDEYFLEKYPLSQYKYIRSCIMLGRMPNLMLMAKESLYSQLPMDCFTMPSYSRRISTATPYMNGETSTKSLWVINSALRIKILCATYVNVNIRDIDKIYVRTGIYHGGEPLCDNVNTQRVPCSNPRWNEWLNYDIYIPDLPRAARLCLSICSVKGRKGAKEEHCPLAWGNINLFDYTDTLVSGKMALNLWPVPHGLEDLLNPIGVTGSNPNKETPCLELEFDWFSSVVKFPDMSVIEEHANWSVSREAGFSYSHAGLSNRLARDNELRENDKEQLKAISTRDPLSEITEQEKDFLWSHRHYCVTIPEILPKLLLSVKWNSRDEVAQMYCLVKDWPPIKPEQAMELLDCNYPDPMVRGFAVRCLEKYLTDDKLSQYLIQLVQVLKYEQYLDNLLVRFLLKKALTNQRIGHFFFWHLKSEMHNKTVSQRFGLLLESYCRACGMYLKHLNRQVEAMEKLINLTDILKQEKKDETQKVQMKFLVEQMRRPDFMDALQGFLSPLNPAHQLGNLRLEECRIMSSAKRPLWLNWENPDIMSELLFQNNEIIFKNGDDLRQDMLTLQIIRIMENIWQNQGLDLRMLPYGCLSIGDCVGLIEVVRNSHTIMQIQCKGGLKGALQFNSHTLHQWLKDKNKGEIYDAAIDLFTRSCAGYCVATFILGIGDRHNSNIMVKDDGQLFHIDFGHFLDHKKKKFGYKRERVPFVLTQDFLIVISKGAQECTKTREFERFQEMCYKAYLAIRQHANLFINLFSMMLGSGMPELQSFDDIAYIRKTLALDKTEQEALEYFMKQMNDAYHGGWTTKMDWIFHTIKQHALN
Chain of PIK3CA(H1047L) (P42336 whole entry H1047L): as the sequence (P42336 whole entry H1047Y) above, with Y1047L counted along it
Chain of PLK1 (P53350 whole entry): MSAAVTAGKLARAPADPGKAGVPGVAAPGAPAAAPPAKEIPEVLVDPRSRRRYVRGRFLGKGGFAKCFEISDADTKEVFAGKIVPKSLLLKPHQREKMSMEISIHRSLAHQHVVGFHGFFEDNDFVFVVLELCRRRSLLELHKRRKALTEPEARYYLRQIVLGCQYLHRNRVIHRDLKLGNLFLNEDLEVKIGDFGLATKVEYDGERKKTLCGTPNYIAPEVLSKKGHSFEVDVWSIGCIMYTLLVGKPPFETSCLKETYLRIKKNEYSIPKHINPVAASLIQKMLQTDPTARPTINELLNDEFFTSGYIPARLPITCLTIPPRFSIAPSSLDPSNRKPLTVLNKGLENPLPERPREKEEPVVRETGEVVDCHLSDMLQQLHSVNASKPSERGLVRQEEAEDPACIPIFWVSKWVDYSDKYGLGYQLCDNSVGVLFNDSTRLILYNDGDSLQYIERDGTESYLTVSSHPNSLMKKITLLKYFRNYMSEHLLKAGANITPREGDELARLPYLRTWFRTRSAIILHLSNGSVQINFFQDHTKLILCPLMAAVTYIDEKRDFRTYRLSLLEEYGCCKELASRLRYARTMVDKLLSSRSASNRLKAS
Chain of NEK3 (P51956 whole entry): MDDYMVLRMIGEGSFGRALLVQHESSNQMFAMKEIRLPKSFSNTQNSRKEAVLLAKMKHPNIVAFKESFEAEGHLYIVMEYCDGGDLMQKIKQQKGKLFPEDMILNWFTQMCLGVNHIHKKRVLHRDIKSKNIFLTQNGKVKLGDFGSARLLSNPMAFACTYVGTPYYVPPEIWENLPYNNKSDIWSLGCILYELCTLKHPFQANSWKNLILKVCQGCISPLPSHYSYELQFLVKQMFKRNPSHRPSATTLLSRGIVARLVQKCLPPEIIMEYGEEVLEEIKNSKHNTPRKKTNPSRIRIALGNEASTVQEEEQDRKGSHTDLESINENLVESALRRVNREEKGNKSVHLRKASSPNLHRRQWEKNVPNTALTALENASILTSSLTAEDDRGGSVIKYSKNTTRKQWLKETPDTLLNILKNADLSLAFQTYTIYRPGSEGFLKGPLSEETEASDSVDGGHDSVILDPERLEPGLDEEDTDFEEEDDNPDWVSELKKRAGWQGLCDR

SMILES: c1ccc2c(c1)Sc1ccccc1N2CCN1CCOCC1 [J54]
- remaining binding (PIK3CA(H1047Y)): 86%
- remaining binding (MYO3B): 100%
- remaining binding (PIK3CG): 99%
- remaining binding (DCAMKL2): 100%
- remaining binding (NEK3): 75%
- remaining binding (RIPK2): 100%
- remaining binding (CDK7): 74%
- remaining binding (MAP3K1): 100%
- remaining binding (BIKE): 52%
- remaining binding (KIT(L576P)): 100%
- remaining binding [1]: 100%
- remaining binding (STK39): 100%
- remaining binding [2]: 92%
- remaining binding [3]: 89%
- remaining binding (VEGFR2): 100%
- remaining binding (PLK1): 100%
- remaining binding (PIK3CA(H1047L)): 100%
- remaining binding (MAP3K2): 100%
